Experimental data from patent publication US12624042B2, “Compound for targeted degradation of BTK and anti-tumour use thereof” (SHANGHAI MEIZER PHARMACEUTICALS CO., LTD., priority 2020, dated 2026).

System: not listed separately
Assay: Caco-2 membrane permeability and efflux test
Assay type: in vitro ADME
Conditions: human, Caco-2, A-B, Caco-2 monolayer, 37° C., 90 minutes, Sample-01; read-out: Papp Sample-01
Description: • 1) Caco-2 cells in the logarithmic growth phase were taken, digested and centrifuged and the cell concentration was adjusted to 4×10^5 cells/mL with MEM complete medium. • 2) 0.5 mL of cell suspension was added to the apical side (AP side) and 1.5 mL MEM cell complete medium was added to the basal side (BL side) of the Transwell plate, respectively. • 3) Culture in a cell constant temperature incubator, change the culture medium every two days, and change the medium every day after one week of culture. • 4) After about 21 days, the resistance value of the formed continuous monolayer film is greater than 100 Ω·cm^2, and the transport experiment is carried out within 3-5 days. • 5) The test compound solution was added to the AP side as the donor solution (Donor), and 1.5 mL of the receiver solution (Receiver) was added to the basal side (BL side). After the culture plate was placed in an incubator at 37° C. for 90 minutes, the AP side was separated from the BL side to terminate the reaction. • 6) Donor or Receiver samples were diluted with 0.4% DMSO in HBSS, and then mixed with acetonitrile. The LC conditions were as follows: mobile phase A: H2O—0.025% FA-1 mM NH4OAC, B: MeOH-0.025% FA-1 mM NH4OAC. Column: ACQUITY UPLC BEH_C18 ([…], 1.7 μm). Flow rate 0.60 mL/min. Gradient: 0.2 min 2% B, 0.6 min 98% B, 1.3 min 98% B, 1.31 min 2% B, 1.8 min stop. • 7) Calculation formula: Papp=(VA/(area×time))×([drug]receiver/([drug]donor)×dilution factor)
where VA is the volume in the receiving chamber, area is the surface area of the membrane, and time is the total transport time in seconds.
Drug molecules cross the single cell layer or via the cell gap from the apical side (AP side) to the basolateral side (BL side) of the Caco-2 monolayer are A to B, and vice versa are B to A. The efflux ratio: Papp(B−A)/Papp(A−B).

Compound	Papp A→B at 90 min
Nc1ncnc2c1c(-c1ccc(Oc3ccccc3)cc1)nn2C1CCN(CCCCCOCCOc2ccc3c(c2)CN(C2CCC(=O)NC2=O)C3=O)CC1 (centres unmarked) [Compound 1]	5.55 ×10⁻⁶ cm/s
Nc1ncnc2c1c(-c1ccc(Oc3ccccc3)cc1)nn2C1CCN(CCOCCCCCOc2ccc3c(c2)CN(C2CCC(=O)NC2=O)C3=O)CC1 (centres unmarked) [Compound 2]	2.37 ×10⁻⁶ cm/s
Nc1ncnc2c1c(-c1ccc(Oc3ccccc3)cc1)nn2C1CCN(CCOCCOCCNc2ccc3c(c2)CN(C2CCC(=O)NC2=O)C3=O)CC1 (centres unmarked) [Control compound 1]	1.07 ×10⁻⁶ cm/s

Same assay, conditions: human, Caco-2, A-B, Caco-2 monolayer, 37° C., 90 minutes, Sample-02; read-out: Papp Sample-02

Compound	Papp A→B at 90 min
Nc1ncnc2c1c(-c1ccc(Oc3ccccc3)cc1)nn2C1CCN(CCCCCOCCOc2ccc3c(c2)CN(C2CCC(=O)NC2=O)C3=O)CC1 (centres unmarked) [Compound 1]	5.16 ×10⁻⁶ cm/s
Nc1ncnc2c1c(-c1ccc(Oc3ccccc3)cc1)nn2C1CCN(CCOCCCCCOc2ccc3c(c2)CN(C2CCC(=O)NC2=O)C3=O)CC1 (centres unmarked) [Compound 2]	2.26 ×10⁻⁶ cm/s
Nc1ncnc2c1c(-c1ccc(Oc3ccccc3)cc1)nn2C1CCN(CCOCCOCCNc2ccc3c(c2)CN(C2CCC(=O)NC2=O)C3=O)CC1 (centres unmarked) [Control compound 1]	1.04 ×10⁻⁶ cm/s

Same assay, conditions: human, Caco-2, A-B, Caco-2 monolayer, 37° C., 90 minutes, mean of two samples; read-out: Papp Mean

Compound	Papp A→B at 90 min
Nc1ncnc2c1c(-c1ccc(Oc3ccccc3)cc1)nn2C1CCN(CCCCCOCCOc2ccc3c(c2)CN(C2CCC(=O)NC2=O)C3=O)CC1 (centres unmarked) [Compound 1]	5.35 ×10⁻⁶ cm/s
Nc1ncnc2c1c(-c1ccc(Oc3ccccc3)cc1)nn2C1CCN(CCOCCCCCOc2ccc3c(c2)CN(C2CCC(=O)NC2=O)C3=O)CC1 (centres unmarked) [Compound 2]	2.32 ×10⁻⁶ cm/s
Nc1ncnc2c1c(-c1ccc(Oc3ccccc3)cc1)nn2C1CCN(CCOCCOCCNc2ccc3c(c2)CN(C2CCC(=O)NC2=O)C3=O)CC1 (centres unmarked) [Control compound 1]	1.05 ×10⁻⁶ cm/s

Same assay, conditions: human, Caco-2, B-A, Caco-2 monolayer, 37° C., 90 minutes, Sample-01; read-out: Papp Sample-01

Compound	Papp B→A at 90 min
Nc1ncnc2c1c(-c1ccc(Oc3ccccc3)cc1)nn2C1CCN(CCCCCOCCOc2ccc3c(c2)CN(C2CCC(=O)NC2=O)C3=O)CC1 (centres unmarked) [Compound 1]	7.18 ×10⁻⁶ cm/s
Nc1ncnc2c1c(-c1ccc(Oc3ccccc3)cc1)nn2C1CCN(CCOCCCCCOc2ccc3c(c2)CN(C2CCC(=O)NC2=O)C3=O)CC1 (centres unmarked) [Compound 2]	2.73 ×10⁻⁶ cm/s
Nc1ncnc2c1c(-c1ccc(Oc3ccccc3)cc1)nn2C1CCN(CCOCCOCCNc2ccc3c(c2)CN(C2CCC(=O)NC2=O)C3=O)CC1 (centres unmarked) [Control compound 1]	30.2 ×10⁻⁶ cm/s

Same assay, conditions: human, Caco-2, B-A, Caco-2 monolayer, 37° C., 90 minutes, Sample-02; read-out: Papp Sample-02

Compound	Papp B→A at 90 min
Nc1ncnc2c1c(-c1ccc(Oc3ccccc3)cc1)nn2C1CCN(CCCCCOCCOc2ccc3c(c2)CN(C2CCC(=O)NC2=O)C3=O)CC1 (centres unmarked) [Compound 1]	6.99 ×10⁻⁶ cm/s
Nc1ncnc2c1c(-c1ccc(Oc3ccccc3)cc1)nn2C1CCN(CCOCCCCCOc2ccc3c(c2)CN(C2CCC(=O)NC2=O)C3=O)CC1 (centres unmarked) [Compound 2]	2.75 ×10⁻⁶ cm/s
Nc1ncnc2c1c(-c1ccc(Oc3ccccc3)cc1)nn2C1CCN(CCOCCOCCNc2ccc3c(c2)CN(C2CCC(=O)NC2=O)C3=O)CC1 (centres unmarked) [Control compound 1]	39.4 ×10⁻⁶ cm/s

Same assay, conditions: human, Caco-2, B-A, Caco-2 monolayer, 37° C., 90 minutes, mean of two samples; read-out: Papp Mean

Compound	Papp B→A at 90 min
Nc1ncnc2c1c(-c1ccc(Oc3ccccc3)cc1)nn2C1CCN(CCCCCOCCOc2ccc3c(c2)CN(C2CCC(=O)NC2=O)C3=O)CC1 (centres unmarked) [Compound 1]	7.09 ×10⁻⁶ cm/s
Nc1ncnc2c1c(-c1ccc(Oc3ccccc3)cc1)nn2C1CCN(CCOCCCCCOc2ccc3c(c2)CN(C2CCC(=O)NC2=O)C3=O)CC1 (centres unmarked) [Compound 2]	2.74 ×10⁻⁶ cm/s
Nc1ncnc2c1c(-c1ccc(Oc3ccccc3)cc1)nn2C1CCN(CCOCCOCCNc2ccc3c(c2)CN(C2CCC(=O)NC2=O)C3=O)CC1 (centres unmarked) [Control compound 1]	34.8 ×10⁻⁶ cm/s

Same assay, conditions: human; efflux ratio, Caco-2; read-out: Papp(B-A)/Papp(A-B)

Compound	efflux ratio at 90 min
Nc1ncnc2c1c(-c1ccc(Oc3ccccc3)cc1)nn2C1CCN(CCCCCOCCOc2ccc3c(c2)CN(C2CCC(=O)NC2=O)C3=O)CC1 (centres unmarked) [Compound 1]	1.32
Nc1ncnc2c1c(-c1ccc(Oc3ccccc3)cc1)nn2C1CCN(CCOCCCCCOc2ccc3c(c2)CN(C2CCC(=O)NC2=O)C3=O)CC1 (centres unmarked) [Compound 2]	1.18
Nc1ncnc2c1c(-c1ccc(Oc3ccccc3)cc1)nn2C1CCN(CCOCCOCCNc2ccc3c(c2)CN(C2CCC(=O)NC2=O)C3=O)CC1 (centres unmarked) [Control compound 1]	33

Target: T1, BTK protein (Homo sapiens, UniProt Q06187)
T1 construct: endogenous in cells; host or cells: Jeko-1
T1 sequence (Q06187 whole entry): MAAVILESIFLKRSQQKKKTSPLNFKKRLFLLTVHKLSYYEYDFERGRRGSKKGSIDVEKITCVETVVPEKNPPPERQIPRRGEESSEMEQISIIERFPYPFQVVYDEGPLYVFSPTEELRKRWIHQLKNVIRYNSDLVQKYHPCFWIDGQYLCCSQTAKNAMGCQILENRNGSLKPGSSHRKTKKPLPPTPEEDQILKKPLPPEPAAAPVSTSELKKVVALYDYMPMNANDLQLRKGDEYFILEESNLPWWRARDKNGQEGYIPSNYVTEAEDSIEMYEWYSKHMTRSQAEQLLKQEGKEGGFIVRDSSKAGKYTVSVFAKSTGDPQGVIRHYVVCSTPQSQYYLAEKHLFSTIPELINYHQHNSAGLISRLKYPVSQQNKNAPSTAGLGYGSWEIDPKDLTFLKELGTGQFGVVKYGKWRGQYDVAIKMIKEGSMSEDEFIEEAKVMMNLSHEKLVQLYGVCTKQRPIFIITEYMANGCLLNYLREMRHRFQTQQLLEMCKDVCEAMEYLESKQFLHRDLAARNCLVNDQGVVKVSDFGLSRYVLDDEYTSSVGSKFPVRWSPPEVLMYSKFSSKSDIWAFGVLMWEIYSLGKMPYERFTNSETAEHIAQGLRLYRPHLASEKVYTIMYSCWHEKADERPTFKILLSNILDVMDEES
Assay: Western blot assay for degradation of BTK protein in Jeko-1 cells
Assay type: cell-based
Conditions: 24 hours of drug treatment, GAPDH internal reference
Description: (§1) The Jeko-1 cell line was cultured in RPMI-1640 medium containing 20% fetal bovine serum in an incubator at 37° C., 5% CO2, and saturated humidity. After the cells grew to the logarithmic growth phase, 5×10^6 cells per well were seeded in a 6-well culture plate, and a DMSO control group and a compound test group were set.
(§2) After 24 hours of drug treatment, the cells were collected, added pre-cooled cell lysate, and lysed on ice for 45 min. After the cells were completely lysed, they were centrifuged, and the supernatant was taken and stored in an ice bath. The protein concentration was determined by Bradford protein concentration assay kit (detergent compatible type), and protein samples were prepared. After the proteins were separated by SDS-PAGE gel electrophoresis, they were transferred to PVDF membranes by wet method and blocked with 5% BSA solution at room temperature for 1 h. Diluted rabbit anti-human BTK and GAPDH were added according to the experimental requirements, and incubated overnight at 4° C. After washing the membrane with TBST, horseradish peroxidase-labeled goat anti-rabbit IgG secondary antibody dilution was added and incubated at room temperature for 1 h. After washing the membrane with TBST, the ECL luminescent solution was added in the gel imager for development and imaging. […]

Compound	DC50
Nc1ncnc2c1c(-c1ccc(Oc3ccccc3)cc1)nn2C1CCN(CCCCCOCCOc2ccc3c(c2)CN(C2CCC(=O)NC2=O)C3=O)CC1 (centres unmarked) [Compound 1]	2.3 nM
Nc1ncnc2c1c(-c1ccc(Oc3ccccc3)cc1)nn2C1CCN(CCOCCCCCOc2ccc3c(c2)CN(C2CCC(=O)NC2=O)C3=O)CC1 (centres unmarked) [Compound 2]	1.5 nM

Target: T2, BTK-C481S mutant protein (Homo sapiens, UniProt Q06187, C481S)
T2 construct: The TMD8 (BTK-C481S) mutant cell line was cultured in RPMI-1640 medium; endogenous in cells; host or cells: TMD8 (BTK-C481S) mutant cell line
T2 sequence (Q06187 whole entry C481S): as the sequence (Q06187 whole entry) above, with C481S counted along it
Assay: Western blot assay for degradation of BTK-C481S mutant protein in TMD8 (BTK-C481S) cells
Assay type: cell-based
Conditions: 24 hours of drug treatment, GAPDH internal reference
Description: as §1, with “TMD8 (BTK-C481S) mutant” for “Jeko-1”
as §2

Compound	DC50
Nc1ncnc2c1c(-c1ccc(Oc3ccccc3)cc1)nn2C1CCN(CCCCCOCCOc2ccc3c(c2)CN(C2CCC(=O)NC2=O)C3=O)CC1 (centres unmarked) [Compound 1]	9.9 nM
Nc1ncnc2c1c(-c1ccc(Oc3ccccc3)cc1)nn2C1CCN(CCOCCCCCOc2ccc3c(c2)CN(C2CCC(=O)NC2=O)C3=O)CC1 (centres unmarked) [Compound 2]	3.1 nM

System: TMD8 (BTK-C481S) mutant cells
Assay: Proliferation inhibition of TMD8 (BTK-C481S) mutant cells (CCK-8)
Assay type: cell-based
Conditions: Homo sapiens; TMD8 (BTK-C481S) mutant cells, 72h, CCK-8; read-out: IC50
Description: Cell plating: TMD8 (BTK-C481S) mutant cells in the logarithmic growth phase were taken, centrifuged, and an appropriate amount of complete medium was added to obtain a single-cell suspension. Cell counting was carried out with a hemocytometer, and a cell suspension of 1.5×10^5 cells/mL was prepared. 100 μL of cell suspension per well was inoculated in a 96-well culture plate, and cultured in a CO2 cell incubator for 24 hours.
The plates were shaken well, placed in a CO2 cell incubator, and continued to incubate for 72h.
CCK-8 detection: 72 hours after administration, 10% CCK-8 solution was added to each well. The plates were placed in a CO2 cell incubator, and incubated for 1-4 hours. The absorbance of each well was measured at 450 nm using a microplate reader.

Compound	IC50
Nc1ncnc2c1c(-c1ccc(Oc3ccccc3)cc1)nn2C1CCN(CCCCCOCCOc2ccc3c(c2)CN(C2CCC(=O)NC2=O)C3=O)CC1 (centres unmarked) [Compound 1]	7.1 nM
Nc1ncnc2c1c(-c1ccc(Oc3ccccc3)cc1)nn2C1CCN(CCOCCCCCOc2ccc3c(c2)CN(C2CCC(=O)NC2=O)C3=O)CC1 (centres unmarked) [Compound 2]	17.7 nM

System: OCI-LY10 tumor
Assay: Anti-tumor effect in mouse OCI-LY10 tumor model
Assay type: in vivo
Conditions: SCID mice, OCI-LY10 subcutaneous, oral 100 mg/kg, twice a day, 14 days; rate=[1−(Day14−Day0)/Day0]*100%
Description: OCI-LY10 cells were cultured in RPMI-1640 medium containing 10% fetal bovine serum (FBS). Cells were cultured at 37° C. in a 5% CO2 incubator.
Cell inoculation method to establish tumor SCID mouse subcutaneous transplantation model: tumor cells in logarithmic growth phase were collected, counted and resuspended in RPMI-1640 medium. Matrigel was added at 1:1, and the concentration of cell suspension was adjusted to 4×10^7 cells/ml. Inoculate tumor cells subcutaneously on the right back of SCID mice with a 1 ml syringe, 4×10^6 cells/0.1 ml/mouse
When the average volume of animal tumors is about 140 mm^3, animals with too large tumor, too small tumor, or have irregular tumor shapes were eliminated. The tumor-bearing mice with tumor volumes ranging from 101.34 to 209.86 mm 3 were selected, and were divided into groups by random block method, respectively as model group, compound group (oral 100 mg/kg, twice a day), 7 mice in each group. The day of grouping was Day 0, and administration was started according to the body weight of the animals.
After 14 days of administration, the tumor volume was measured, and the tumor inhibition rate was calculated, and the calculation formula was as follows: Tumor inhibition rate=[1−(Day14 tumor volume−Day0 administration tumor volume)/Day0 administration tumor volume]*100%

Compound	Tumor inhibition rate
Nc1ncnc2c1c(-c1ccc(Oc3ccccc3)cc1)nn2C1CCN(CCCCCOCCOc2ccc3c(c2)CN(C2CCC(=O)NC2=O)C3=O)CC1 (centres unmarked) [Compound 1]	175%
Nc1ncnc2c1c(-c1ccc(Oc3ccccc3)cc1)nn2C1CCN(CCOCCCCCOc2ccc3c(c2)CN(C2CCC(=O)NC2=O)C3=O)CC1 (centres unmarked) [Compound 2]	189%
